Columns and labels:
[1] = Photohemolytic activity against human erythrocytes at 60 uM after 15 mins in presence of 81197.4 mW/m2 of UVA light; assay type: ADME, cell-based, Erythrocyte
[2] = Phototoxicity against human skin fibroblasts at 1 to 100 uM measured after 14 hrs incubation and 24 hrs after initial 14 hrs incubation by MTS assay; conditions: skin fibroblast
[3] = Photohemolytic activity against human erythrocytes after 15 mins in presence of 81197.4 mW/m2 of UVA light; assay type: ADME, cell-based; conditions: erythrocyte, 0.25 h

In the case of `O=C(c1ccccc1)c1ccc2n1CCC2`, the Activity ([1]; erythrocyte, 0.25 h, 60 µM) is reported as “Non-toxic” and the Activity [2] is reported as “Non-toxic”.

For `CCc1cccc(C(=O)c2ccccc2)c1`, the Activity [3] was “Dose-dependent effect” and the Activity [2] was “Non-toxic”.

For `CC(C(=O)O)c1cccc(C(=O)c2ccccc2)c1` (configuration not stated) [KETOPROFEN], the Activity [2] was “Non-toxic”.

With `O=C(c1ccccc1)c1ccc2n1CCC2C(=O)O` (configuration not stated) [KETOROLAC] the hemolysis at 0.25 h, 60 µM ([1]; erythrocytes, read-out: Activity) was 20% and the Activity [2] was “Non-toxic”.

Source: ChEMBL document CHEMBL3132798, “Ketorolac beats ketoprofen: lower photodecarboxylation, photohemolysis and phototoxicity” (Medchemcomm, 2013)
